Usually Kd stands for the equilibrium constant for the complex coming apart. Low readings indicate a tighter complex, high ones a looser complex.

Values joined by “and” are separate entries in the source; they are usually repeats but may differ in a detail not shown here. Equal values may be shown once. “Also recorded” adds a separate entry of the source.

Results on two compounds are retold here after publication PMC11470957, “Principles of paralog-specific targeted protein degradation engaging the C-degron E3 KLHDC2” (Nature Communications, 2024).

Assay [1] deals with KLHDC2, KLHDC3, KLHDC10, KLHDC1 E3 ligases. The conditions noted are these: for inhibition of substrate ubiquitylation by Kelch family E3 ligases other than KLHDC2: ligand alone, Fig S5b, c.
For a further assay, the target named is BRD2^BD2 (Homo sapiens, UniProt P25440). The assay can be described thus: ITC, binary binding to BRD2^BD2. (Isothermal titration calorimetry measures the heat released or taken up as one component is titrated into another.)
Chain of BRD2^BD2 (P25440 344-455): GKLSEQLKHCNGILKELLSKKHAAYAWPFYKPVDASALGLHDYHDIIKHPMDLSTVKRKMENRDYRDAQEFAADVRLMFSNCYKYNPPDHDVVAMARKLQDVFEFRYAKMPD
The target of assay [2] is H346A/R347A KLHDC2^SBD / BRD3^BD2 (Homo sapiens, UniProt Q15059+Q9Y2U9, H346A/R347A). Put plainly: ITC, ternary complex H346A/R347A KLHDC2^SBD with PROTAC-BRD3^BD2.
Chain of H346A/R347A KLHDC2^SBD / BRD3^BD2 (Q9Y2U9 15-361 H346A/R347A): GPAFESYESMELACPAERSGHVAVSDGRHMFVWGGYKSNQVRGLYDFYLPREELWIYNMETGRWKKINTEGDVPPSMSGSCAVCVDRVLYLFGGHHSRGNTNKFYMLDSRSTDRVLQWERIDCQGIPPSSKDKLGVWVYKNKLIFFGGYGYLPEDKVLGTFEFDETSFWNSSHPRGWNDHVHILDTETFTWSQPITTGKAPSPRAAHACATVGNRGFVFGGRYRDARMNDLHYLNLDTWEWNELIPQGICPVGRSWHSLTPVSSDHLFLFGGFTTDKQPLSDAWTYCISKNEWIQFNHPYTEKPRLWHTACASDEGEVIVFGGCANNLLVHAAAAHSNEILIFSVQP
Chain of H346A/R347A KLHDC2^SBD / BRD3^BD2 (Q15059 306-416, stated change not applied): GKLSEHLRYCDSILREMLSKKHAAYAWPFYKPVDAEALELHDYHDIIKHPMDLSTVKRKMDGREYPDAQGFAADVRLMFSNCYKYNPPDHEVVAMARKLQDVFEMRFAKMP
The next assay addresses T1, KLHDC2 (Homo sapiens, UniProt Q9Y2U9).
T1 sequence (Q9Y2U9 1-406): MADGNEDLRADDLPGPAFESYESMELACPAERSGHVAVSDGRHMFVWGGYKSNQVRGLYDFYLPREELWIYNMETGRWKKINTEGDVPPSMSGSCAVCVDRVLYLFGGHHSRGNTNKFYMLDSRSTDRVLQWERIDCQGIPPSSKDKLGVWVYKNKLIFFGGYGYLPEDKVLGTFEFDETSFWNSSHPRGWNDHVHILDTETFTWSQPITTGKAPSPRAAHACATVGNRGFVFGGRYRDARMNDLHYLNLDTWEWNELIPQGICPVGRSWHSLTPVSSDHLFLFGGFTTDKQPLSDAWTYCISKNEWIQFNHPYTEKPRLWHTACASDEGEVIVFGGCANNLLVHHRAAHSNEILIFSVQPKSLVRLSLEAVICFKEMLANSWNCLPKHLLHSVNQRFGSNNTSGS
The assay can be described thus: Western blot of KLHDC2 levels after cellular dosing. In general terms: Immunoblotting shows a protein as a band on a membrane.

In assay [3] the test system is BD2 domain from BRD2, BRD3, or BRD4 / neddylated CRL2^KLHDC2. The assay can be described thus: Pulse-chase PROTAC-dependent ubiquitylation of BRD BD2 domains by neddylated CRL2^KLHDC2. The conditions noted are these: neddylated CRL2^KLHDC2 not subject to autoinhibition; Fig 3e.
The next assay has as its target BRD4 (Homo sapiens, UniProt O60885). The assay can be described thus: Western blot of BRD4 levels after cellular dosing.
The mark [4] stands for this setting: cell: SJ46421, syringe: BRD2^BD2.
[5] abbreviates: ITC source data Fig4f, N=1, syringe H346A/R347A KLHDC2, cell SJ46421-BRD3BD2.
The mark [6] stands for this setting: ITC, syringe H346A/R347A KLHDC2, cell compound-BRD3BD2, N=1.
Setting [7] is: cell: SJ46421-BRD3^BD2, syringe: H346A/R347A KLHDC2^SBD, n=1.
The mark [8] stands for this setting: Fig S6b, MDA-MB468 Cells, 10 uM.

`O=C(O)CNC(=O)Cc1csc(-c2ccc3ccccc3c2)n1` [SJ46411]: the “selectivity towards KLHDC2 over other KLHDC family members” value in assay [1] (inhibition of SELK ubiquitylation) is given as “at least two orders-of-magnitude”. In addition, in assay [1], the “inhibition of substrate ubiquitylation by Kelch family E3 ligases other than KLHDC2” value is “does not show substantial effects; also recorded: largely inactive”.
On to `Cc1sc2c(c1C)C(c1ccc(Cl)cc1)=N[C@@H](CC(=O)N1CCN(CCOc3cccc4ccc(-c5nc(CC(=O)NCC(=O)O)cs5)cc34)CC1)c1nnc(C)n1-2` [SJ46421], for which the Kd on BRD2^BD2 (ITC Kd, cell: SJ46421, syringe: BRD2^BD2) was 2140 ± 306 nM; on BRD2^BD2 (Kd, Rep1/Rep2, ITC source data Fig4a, syringe BRD2BD2, cell SJ46421) it was 2290 nM and 1890 nM; in assay [2], 50.9 nM. Moreover, the “(-)TDS” value is 2.71 and 2.54 on BRD2^BD2 (ITC, syringe BRD2BD2, cell compound, Rep1, Rep2); -7.83 in assay [2] (setting [6]). In addition, at BRD2^BD2 (setting [4]), the “ITC -TΔS” value is on record as 2.63 +/- 0.12 kcal/mol-1. The “ITC N” value on BRD2^BD2 (setting [4]) worked out at 0.9. In addition, the “ITC ΔH” value on BRD2^BD2 (setting [4]) was -10.5 +/- 0.45 kcal/mol-1. Further, the “cooperativity α” value in assay [2] (H346A/R347A KLHDC2^SBD, estimated from the binding affinity of SJ46421 to WT KLHDC2) is reported as 6.0. Moreover, the “(-)TDS, Rep1” value in assay [2] (setting [5]) is reported as -7.83. In addition, the “DG, Rep1” value in assay [2] (setting [5]) was -10.2. For the same compound, in assay [2] (setting [5]), the “DH, Rep1” value is reported as -2.36. For the same compound, the DG in assay [2] (setting [6]) was -10.2. In assay [2] (setting [6]), this compound registered a DH of -2.36. The “ITC -TΔS (ternary)” value in assay [2] (setting [7]) is given as -7.83 kcal/mol-1. In addition, in assay [2] (setting [7]), the “ITC N (ternary)” value is reported as 0.9. Also, the “ITC ΔG (ternary)” value in assay [2] (setting [7]) is recorded as -10.2 kcal/mol-1. In addition, the “ITC ΔH (ternary)” value in assay [2] (setting [7]) is reported as -2.36 kcal/mol-1. Moreover, at KLHDC2 (Fig 6b, KO/Rescue, 5 uM, DMSO printed 0), the “KLHDC2 level, Western blot quantification” value worked out at 0. Moreover, the “KLHDC2 level, Western blot quantification (DMSO = 100)” value at KLHDC2 (Fig 6b, U2OS, 5 uM) was 103.737 and 122.001; at KLHDC2 (Fig S6a, 293T cells, 2.5 uM) it was 109.414 and 102; at KLHDC2 (Fig S6a, 293T cells, 5 uM), 112.068 and 103; at KLHDC2 (setting [8]) it was 128.202 and 120. The “polyubiquitylation of the BD2 domain from BRD2, BRD3, or BRD4” value in assay [3] is “able to promote polyubiquitylation”. For the same compound, the “inhibition of substrate ubiquitylation by Kelch family E3 ligases other than KLHDC2” value in assay [1] was “largely inactive”. Besides, the “BRD4 level, Western blot quantification (DMSO = 100)” value on BRD4 (Fig 6b, KO/Rescue, 5 uM) is 89.649 and 113.548; at BRD4 (Fig 6b, U2OS, 5 uM) it was 119.505 and 104.107; on BRD4 (Fig S6a, 293T cells, 2.5 uM), 98.5503 and 107.435; on BRD4 (Fig S6a, 293T cells, 5 uM), 86.1267 and 99.7257; at BRD4 (setting [8]), 94.0762 and 99.1924.
